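All cell lines were grown in 96-well plates and treated with compound for 48 hours. TGI marks complete inhibition of growth.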
Experiments:
Assay in all cases: DTP human tumour cell line panel, 48 h
ACHN renal = tested on: ACHN renal
HL-60(TB) leukemia = tested on: HL-60(TB) leukemia
K-562 leukemia = tested on: K-562 leukemia
NCI-H23 lung = tested on: NCI-H23 lung
OVCAR-5 ovarian = tested on: OVCAR-5 ovarian
UACC-62 melanoma = tested on: UACC-62 melanoma
MDA-MB-435 = tested on: MDA-MB-435
M14 melanoma = tested on: M14 melanoma
COLO 205 colon = tested on: COLO 205 colon
NCI/ADR-RES ovarian = tested on: NCI/ADR-RES ovarian
MALME-3M melanoma = tested on: MALME-3M melanoma
UO-31 renal = tested on: UO-31 renal
SK-MEL-28 melanoma = tested on: SK-MEL-28 melanoma
RPMI-8226 leukemia = tested on: RPMI-8226 leukemia
A549 NSCLC = tested on: A549 NSCLC
SK-MEL-5 melanoma = tested on: SK-MEL-5 melanoma
HCC-2998 colon = tested on: HCC-2998 colon
MOLT-4 leukemia = tested on: MOLT-4 leukemia
U251 CNS = tested on: U251 CNS
A498 renal = tested on: A498 renal

CC(=O)OCC1OC(n2c(C)c(N=Nc3ccccc3)c(C)c(C#N)c2=S)C(OC(C)=O)C(OC(C)=O)C1OC(C)=O (stereo not given)
TGI (ACHN renal): > 100 µM
TGI (HL-60(TB) leukemia): > 100 µM
TGI (K-562 leukemia): > 100 µM
TGI (NCI-H23 lung): > 100 µM
TGI (OVCAR-5 ovarian): > 100 µM
TGI (UACC-62 melanoma): 33.3 µM
TGI (MDA-MB-435): > 100 µM
TGI (M14 melanoma): > 100 µM
TGI (COLO 205 colon): > 100 µM
TGI (NCI/ADR-RES ovarian): > 100 µM
TGI (MALME-3M melanoma): > 100 µM
TGI (UO-31 renal): > 100 µM
TGI (SK-MEL-28 melanoma): > 100 µM
TGI (RPMI-8226 leukemia): > 100 µM
TGI (A549 NSCLC): > 100 µM
TGI (SK-MEL-5 melanoma): > 100 µM
TGI (HCC-2998 colon): > 100 µM
TGI (MOLT-4 leukemia): > 100 µM

CC(C)OCC(O)COc1ccc2ccc(=O)oc2c1 (stereo not given)
TGI (U251 CNS): > 100 µM
TGI (ACHN renal): > 100 µM
TGI (HL-60(TB) leukemia): > 100 µM
TGI (K-562 leukemia): > 100 µM
TGI (NCI-H23 lung): > 100 µM
TGI (OVCAR-5 ovarian): > 100 µM
TGI (UACC-62 melanoma): > 100 µM
TGI (MDA-MB-435): > 100 µM
TGI (M14 melanoma): > 100 µM
TGI (COLO 205 colon): > 100 µM
TGI (NCI/ADR-RES ovarian): > 100 µM
TGI (MALME-3M melanoma): > 100 µM
TGI (UO-31 renal): > 100 µM
TGI (SK-MEL-28 melanoma): > 100 µM
TGI (RPMI-8226 leukemia): > 100 µM
TGI (A549 NSCLC): > 100 µM
TGI (SK-MEL-5 melanoma): > 100 µM
TGI (HCC-2998 colon): > 100 µM
TGI (MOLT-4 leukemia): > 100 µM

CCCN1CN(C(C(=O)N[C@@H]2C(=O)N3C2SC(C)(C)C3C(=O)O)c2ccccc2)CSC1=S (stereo not given in full)
TGI (U251 CNS): > 100 µM
TGI (ACHN renal): > 100 µM
TGI (HL-60(TB) leukemia): > 100 µM
TGI (K-562 leukemia): > 100 µM
TGI (NCI-H23 lung): > 100 µM
TGI (OVCAR-5 ovarian): > 100 µM
TGI (UACC-62 melanoma): > 100 µM
TGI (M14 melanoma): > 100 µM
TGI (A498 renal): > 100 µM
TGI (COLO 205 colon): > 100 µM
TGI (MALME-3M melanoma): > 100 µM
TGI (UO-31 renal): > 100 µM
TGI (SK-MEL-28 melanoma): > 100 µM
TGI (RPMI-8226 leukemia): > 100 µM
TGI (A549 NSCLC): > 100 µM
TGI (SK-MEL-5 melanoma): > 100 µM
TGI (MOLT-4 leukemia): > 100 µM

CCOC(=O)n1[nH]c(=O)n(-c2ccccc2)c1=O
TGI (U251 CNS): > 100 µM
TGI (ACHN renal): > 100 µM
TGI (HL-60(TB) leukemia): > 100 µM
TGI (K-562 leukemia): > 100 µM
TGI (NCI-H23 lung): > 100 µM
TGI (OVCAR-5 ovarian): > 100 µM
TGI (UACC-62 melanoma): > 100 µM
TGI (MDA-MB-435): > 100 µM
TGI (M14 melanoma): > 100 µM
TGI (COLO 205 colon): > 100 µM
TGI (NCI/ADR-RES ovarian): > 100 µM
TGI (MALME-3M melanoma): > 100 µM
TGI (UO-31 renal): > 100 µM
TGI (SK-MEL-28 melanoma): > 100 µM
TGI (RPMI-8226 leukemia): > 100 µM
TGI (A549 NSCLC): > 100 µM
TGI (SK-MEL-5 melanoma): > 100 µM
TGI (HCC-2998 colon): > 100 µM
TGI (MOLT-4 leukemia): > 100 µM

COC(=O)N/N=C(/CCN1CCCC1)CC(c1ccccc1)c1c(O)c2ccccc2oc1=O (stereo not given)
TGI (U251 CNS): > 100 µM
TGI (ACHN renal): > 100 µM
TGI (HL-60(TB) leukemia): > 100 µM
TGI (K-562 leukemia): > 100 µM
TGI (NCI-H23 lung): > 100 µM
TGI (OVCAR-5 ovarian): > 100 µM
TGI (UACC-62 melanoma): > 100 µM
TGI (M14 melanoma): > 100 µM
TGI (A498 renal): > 100 µM
TGI (COLO 205 colon): > 100 µM
TGI (MALME-3M melanoma): > 100 µM
TGI (UO-31 renal): > 100 µM
TGI (SK-MEL-28 melanoma): > 100 µM
TGI (RPMI-8226 leukemia): > 100 µM
TGI (A549 NSCLC): > 100 µM
TGI (SK-MEL-5 melanoma): > 100 µM
TGI (HCC-2998 colon): > 100 µM
TGI (MOLT-4 leukemia): > 100 µM

Cc1ccc([N+](=O)[O-])cc1NC(=O)C(=O)Cc1occc(=O)c1O
TGI (U251 CNS): > 100 µM
TGI (ACHN renal): > 100 µM
TGI (HL-60(TB) leukemia): > 100 µM
TGI (K-562 leukemia): > 100 µM
TGI (OVCAR-5 ovarian): > 100 µM
TGI (UACC-62 melanoma): > 100 µM
TGI (A498 renal): > 100 µM
TGI (COLO 205 colon): > 100 µM
TGI (UO-31 renal): > 100 µM
TGI (SK-MEL-28 melanoma): > 100 µM
TGI (RPMI-8226 leukemia): > 100 µM
TGI (A549 NSCLC): > 100 µM
TGI (SK-MEL-5 melanoma): > 100 µM
TGI (HCC-2998 colon): > 100 µM

— PubChem BioAssay (NCI)
